Among the data in patent US7524869B2, “Taxanes having a C10 ester substituent” (Florida State University Research Foundation, Inc., priority 2000, dated 2009) are IC50 values, retold here.

This experiment relates to HCT116. The experiment can be described thus: In vitro cytotoxicity measured by the cell colony formation assay. As to conditions: HCT116 cells, 72 h drug incubation, colonies counted after 7 days; ID50 = drug concentration producing 50% inhibition of colony formation; read-out: IN VITRO ID 50 (nm) HCT116. The experiment is classed as cell-based.

As to `CCCC(=O)N[C@@H](c1ccco1)[C@@H](O)C(=O)O[C@H]1C[C@@]2(O)[C@@H](OC(=O)c3ccccc3)C3[C@](C)(C(=O)[C@H](OC(=O)C4CC4)C(=C1C)C2(C)C)[C@@H](O)C[C@H]1OC[C@@]31OC(C)=O` (stereo partly shown) [Compound 4062], the IC50 was below 1 nM.
For the compound `C/C=C/C(=O)O[C@H]1C(=O)[C@@]2(C)C([C@H](OC(=O)c3ccccc3)[C@]3(O)C[C@H](OC(=O)[C@H](O)[C@H](C=C(C)C)NC(=O)OC(C)(C)C)C(C)=C1C3(C)C)[C@]1(OC(C)=O)CO[C@@H]1C[C@@H]2O` (stereo partly shown) [Compound 2332], the IC50 was below 1 nM.
Then `CC(=O)O[C@@]12CO[C@@H]1C[C@H](O)[C@@]1(C)C(=O)[C@H](OC(=O)C=C(C)C)C3=C(C)[C@@H](OC(=O)[C@H](O)[C@@H](NC(=O)OC(C)(C)C)c4ccccn4)C[C@@](O)([C@@H](OC(=O)c4ccccc4)C12)C3(C)C` (stereo partly shown) [Compound 2464], with below 1 nM.
Consider `CC(=O)OC12COC1CC(O)C1(C)C(=O)C(OC(=O)c3ccco3)C3=C(C)C(OC(=O)C(O)C(NC(=O)OC(C)(C)C)c4ccncc4)CC(O)(C(OC(=O)c4ccccc4)C21)C3(C)C` (stereo not shown) [Compound 2132], for which the IC50 is below 1 nM.
Then `CC(=O)O[C@@]12CO[C@@H]1C[C@H](O)[C@@]1(C)C(=O)[C@H](OC(=O)C3CC3)C3=C(C)[C@@H](OC(=O)[C@H](O)[C@@H](NC(=O)OC(C)(C)C)C4CC4)C[C@@](O)([C@@H](OC(=O)c4ccccc4)C12)C3(C)C` (stereo partly shown) [Compound 0860], with below 1 nM; and `CC(=O)O[C@@]12CO[C@@H]1C[C@H](O)[C@@]1(C)C(=O)[C@H](OC(=O)C3CC3)C3=C(C)[C@@H](OC(=O)[C@H](O)[C@@H](NC(=O)OC(C)(C)C)c4ccoc4)C[C@@](O)([C@@H](OC(=O)c4ccccc4)C12)C3(C)C` (stereo partly shown) [Compound 2781], with below 1 nM; and `CC(=O)OC12COC1CC(O)C1(C)C(=O)C(OC(=O)c3cccs3)C3=C(C)C(OC(=O)C(O)C(NC(=O)OC(C)(C)C)c4ccccn4)CC(O)(C(OC(=O)c4ccccc4)C21)C3(C)C` (stereo not shown) [Compound 1883], with below 10 nM.
As for `CC(=O)O[C@@]12CO[C@@H]1C[C@H](O)[C@@]1(C)C(=O)[C@H](OC(=O)C=C(C)C)C3=C(C)[C@@H](OC(=O)[C@H](O)[C@@H](NC(=O)OC(C)(C)C)c4cccs4)C[C@@](O)([C@@H](OC(=O)c4ccccc4)C12)C3(C)C` (stereo partly shown) [Compound 2503], the figure is below 1 nM; as for `CC(=O)O[C@@]12CO[C@@H]1C[C@H](O)[C@@]1(C)C(=O)[C@H](OC(=O)C3CC3)C3=C(C)[C@@H](OC(=O)[C@H](O)[C@@H](NC(=O)c4cccnc4)c4cccs4)C[C@@](O)([C@@H](OC(=O)c4ccccc4)C12)C3(C)C` (stereo partly shown) [Compound 4112], below 10 nM.
As for `CC(=O)OC12COC1CC(O)C1(C)C(=O)C(OC(=O)c3ccco3)C3=C(C)C(OC(=O)C(O)C(NC(=O)OC(C)(C)C)c4ccccc4)CC(O)(C(OC(=O)c4ccccc4)C21)C3(C)C` (stereo not shown) [Compound 2212], the figure is below 10 nM.
As to `C/C=C/C(=O)N[C@@H](c1ccco1)[C@@H](O)C(=O)O[C@H]1C[C@@]2(O)[C@@H](OC(=O)c3ccccc3)C3[C@](C)(C(=O)[C@H](OC(=O)C4CC4)C(=C1C)C2(C)C)[C@@H](O)C[C@H]1OC[C@@]31OC(C)=O` (stereo partly shown) [Compound 3971], the IC50 was below 1 nM.
As to `CC(=O)O[C@@]12CO[C@@H]1C[C@H](O)[C@@]1(C)C(=O)[C@H](OC(=O)C3CC3)C3=C(C)[C@@H](OC(=O)[C@H](O)[C@H](C=C(C)C)NC(=O)OCC(C)C)C[C@@](O)([C@@H](OC(=O)c4ccccc4)C12)C3(C)C` (stereo partly shown) [Compound 4720], the IC50 is below 10 nM.
Then `CCC(=O)O[C@H]1C(=O)[C@@]2(C)C([C@H](OC(=O)c3ccccc3)[C@]3(O)C[C@H](OC(=O)[C@H](O)[C@@H](NC(=O)OC(C)(C)C)c4ccsc4)C(C)=C1C3(C)C)[C@]1(OC(C)=O)CO[C@@H]1C[C@@H]2O` (stereo partly shown) [Compound 0562], with below 1 nM; and `CC(=O)O[C@@]12CO[C@@H]1C[C@H](O)[C@@]1(C)C(=O)[C@H](OC(=O)C3CC3)C3=C(C)[C@@H](OC(=O)[C@H](O)[C@@H](NC(=O)c4ccccc4)c4ccccn4)C[C@@](O)([C@@H](OC(=O)c4ccccc4)C12)C3(C)C` (stereo partly shown) [Compound 2844], with below 10 nM; and `CC(=O)OC12COC1CC(O)C1(C)C(=O)C(OC(=O)c3ccco3)C3=C(C)C(OC(=O)C(O)C(C=C(C)C)NC(=O)OC(C)(C)C)CC(O)(C(OC(=O)c4ccccc4)C21)C3(C)C` (stereo not shown) [Compound 2101], with below 1 nM.
For the compound `CCC(=O)O[C@H]1C(=O)[C@@]2(C)C([C@H](OC(=O)c3ccccc3)[C@]3(O)C[C@H](OC(=O)[C@H](O)[C@@H](NC(=O)c4cccs4)c4ccco4)C(C)=C1C3(C)C)[C@]1(OC(C)=O)CO[C@@H]1C[C@@H]2O` (stereo partly shown) [Compound 3644], the IC50 was below 1 nM.
Consider `CC(=O)OC12COC1CC(O)C1(C)C(=O)C(OC(=O)c3cccs3)C3=C(C)C(OC(=O)C(O)C(NC(=O)OC(C)(C)C)c4ccncc4)CC(O)(C(OC(=O)c4ccccc4)C21)C3(C)C` (stereo not shown) [Compound 1954], for which the IC50 was below 1 nM.
As for `CC(=O)O[C@@]12CO[C@@H]1C[C@H](O)[C@@]1(C)C(=O)[C@H](OC(=O)C3CC3)C3=C(C)[C@@H](OC(=O)[C@H](O)[C@@H](NC(=O)c4ccccc4)c4ccco4)C[C@@](O)([C@@H](OC(=O)c4ccccc4)C12)C3(C)C` (stereo partly shown) [Compound 0908], the figure is below 1 nM.
As for `C/C=C/C(=O)O[C@H]1C(=O)[C@@]2(C)C([C@H](OC(=O)c3ccccc3)[C@]3(O)C[C@H](OC(=O)[C@H](O)[C@@H](NC(=O)OC(C)(C)C)c4cccnc4)C(C)=C1C3(C)C)[C@]1(OC(C)=O)CO[C@@H]1C[C@@H]2O` (stereo partly shown) [Compound 2353], the figure is below 10 nM; as for `CC(=O)O[C@@]12CO[C@@H]1C[C@H](O)[C@@]1(C)C(=O)[C@H](OC(=O)C3CC3)C3=C(C)[C@@H](OC(=O)[C@H](O)[C@@H](NC(=O)c4cccs4)c4ccco4)C[C@@](O)([C@@H](OC(=O)c4ccccc4)C12)C3(C)C` (stereo partly shown) [Compound 3663], below 1 nM; as for `CCOC(=O)N[C@@H](c1ccco1)[C@@H](O)C(=O)O[C@H]1C[C@@]2(O)[C@@H](OC(=O)c3ccccc3)C3[C@](C)(C(=O)[C@H](OC(=O)C4CC4)C(=C1C)C2(C)C)[C@@H](O)C[C@H]1OC[C@@]31OC(C)=O` (stereo partly shown) [Compound 3677], below 1 nM.
`CC(=O)O[C@@]12CO[C@@H]1C[C@H](O)[C@@]1(C)C(=O)[C@H](OC(=O)C3CC3)C3=C(C)[C@@H](OC(=O)[C@H](O)[C@H](C=C(C)C)NC(=O)c4ccccc4)C[C@@](O)([C@@H](OC(=O)c4ccccc4)C12)C3(C)C` (stereo partly shown) [Compound 0890]: the IC50 is below 1 nM.
On to `CC(=O)O[C@@]12CO[C@@H]1C[C@H](O)[C@@]1(C)C(=O)[C@H](OC(=O)C3CC3)C3=C(C)[C@@H](OC(=O)[C@H](O)[C@@H](NC(=O)c4ccccc4)c4ccoc4)C[C@@](O)([C@@H](OC(=O)c4ccccc4)C12)C3(C)C` (stereo partly shown) [Compound 2826], for which the IC50 was below 1 nM.
Then `CC(=O)OC12COC1CC(O)C1(C)C(=O)C(OC(=O)c3ccco3)C3=C(C)C(OC(=O)C(O)C(NC(=O)OC(C)(C)C)C(C)C)CC(O)(C(OC(=O)c4ccccc4)C21)C3(C)C` (stereo not shown) [Compound 2181], with below 10 nM.
Then `CCC(=O)O[C@H]1C(=O)[C@@]2(C)C([C@H](OC(=O)c3ccccc3)[C@]3(O)C[C@H](OC(=O)[C@H](O)[C@@H](NC(=O)OC(C)C)c4cccs4)C(C)=C1C3(C)C)[C@]1(OC(C)=O)CO[C@@H]1C[C@@H]2O` (stereo partly shown) [Compound 3361], with below 1 nM.
Turning to `C/C=C/C(=O)N[C@@H](c1cccs1)[C@@H](O)C(=O)O[C@H]1C[C@@]2(O)[C@@H](OC(=O)c3ccccc3)C3[C@](C)(C(=O)[C@H](OC(=O)CCC)C(=C1C)C2(C)C)[C@@H](O)C[C@H]1OC[C@@]31OC(C)=O` (stereo partly shown) [Compound 3595], the IC50 was below 1 nM.
As for `CC(=O)OC12COC1CC(O)C1(C)C(=O)C(OC(=O)c3cccs3)C3=C(C)C(OC(=O)C(O)C(NC(=O)OC(C)(C)C)c4ccc([N+](=O)[O-])cc4)CC(O)(C(OC(=O)c4ccccc4)C21)C3(C)C` (stereo not shown) [Compound 1911], the figure is below 10 nM.
Consider `CCCC(=O)O[C@H]1C(=O)[C@@]2(C)C([C@H](OC(=O)c3ccccc3)[C@]3(O)C[C@H](OC(=O)[C@H](O)[C@@H](NC(=O)OC(C)(C)C)c4ccoc4)C(C)=C1C3(C)C)[C@]1(OC(C)=O)CO[C@@H]1C[C@@H]2O` (stereo partly shown) [Compound 0999], for which the IC50 is below 1 nM.
As to `CC(=O)O[C@@]12CO[C@@H]1C[C@H](O)[C@@]1(C)C(=O)[C@H](OC(=O)C3CC3)C3=C(C)[C@@H](OC(=O)[C@H](O)[C@H](C=C(C)C)NC(=O)OC(C)(C)C)C[C@@](O)([C@@H](OC(=O)c4ccccc4)C12)C3(C)C` (stereo partly shown) [Compound 0838], the IC50 is below 1 nM.
As for `CCCC(=O)O[C@H]1C(=O)[C@@]2(C)C([C@H](OC(=O)c3ccccc3)[C@]3(O)C[C@H](OC(=O)[C@H](O)[C@@H](NC(=O)OCC(C)C)c4ccsc4)C(C)=C1C3(C)C)[C@]1(OC(C)=O)CO[C@@H]1C[C@@H]2O` (stereo partly shown) [Compound 4834], the figure is below 10 nM; as for `C/C=C/C(=O)N[C@@H](c1ccoc1)[C@@H](O)C(=O)O[C@H]1C[C@@]2(O)[C@@H](OC(=O)c3ccccc3)C3[C@](C)(C(=O)[C@H](OC(=O)CC)C(=C1C)C2(C)C)[C@@H](O)C[C@H]1OC[C@@]31OC(C)=O` (stereo partly shown) [Compound 4888], below 1 nM; as for `CCC(=O)O[C@H]1C(=O)[C@@]2(C)C([C@H](OC(=O)c3ccccc3)[C@]3(O)C[C@H](OC(=O)[C@H](O)[C@H](C=C(C)C)NC(=O)OCC(C)C)C(C)=C1C3(C)C)[C@]1(OC(C)=O)CO[C@@H]1C[C@@H]2O` (stereo partly shown) [Compound 5065], below 10 nM.
Consider `CC(=O)O[C@@]12CO[C@@H]1C[C@H](O)[C@@]1(C)C(=O)[C@H](OC(=O)C3CC3)C3=C(C)[C@@H](OC(=O)[C@H](O)[C@@H](NC(=O)OC(C)(C)C)c4ccco4)C[C@@](O)([C@@H](OC(=O)c4ccccc4)C12)C3(C)C` (stereo partly shown) [Compound 0843], for which the IC50 is below 1 nM.
Then `CC(=O)O[C@@]12CO[C@@H]1C[C@H](O)[C@@]1(C)C(=O)[C@H](OC(=O)C(C)C)C3=C(C)[C@@H](OC(=O)[C@H](O)[C@@H](NC(=O)OC(C)(C)C)C4CCC4)C[C@@](O)([C@@H](OC(=O)c4ccccc4)C12)C3(C)C` (stereo partly shown) [Compound 2319], with below 10 nM.
